Laboratory results reported in patent publication US7335359B2, “Glycosylated specificity exchangers” (Tripep AB, priority 2003, dated 2008).

System: human Gal-alpha1,3-Gal-specific antibodies
Assay: Glycosylated peptide competitive assay on Gal-BSA coated plates with human sera IB72 (FIG. 4)
Format: binding
Details: positive control, mixed with human sera IB72
Protocol: To further evaluate the ability of the glycosylated specificity exchangers to bind to a pathogen, a glycosylated peptide competitive assay was performed using the most reactive human sera (IB72). In brief, Gal-alpha1,3-Gal-labeled bovine serum albumin (Gal-BSA) was coated onto 96-well microplates in sodium carbonate buffer (pH: 9.6) at +4° C. overnight. Dilutions of human sera and dilutions of glyco-peptides (glycosylated HIV-specific ligand/receptor specificity exchangers or Gal-BSA) or non-glycosylated peptides (HIV-specific ligand/receptor specificity exchangers or BSA) were preincubated in phosphate-buffered saline (PBS) containing 1% bovine albumin, 2% goat serum and 0.05% Tween 20 at 37° C. for 1 h. The mixture was then added to the coated plates and incubated at 37° C. for 1 h, then washed 3 times with phosphate-buffered saline (PBS) containing 0.05% Tween 20 (pH: 7.4).
Bound antibodies were indicated with goat anti-human polyvalent Ig, conjugated with alkaline phosphatase. The plates were incubated and washed as described above. Plates were developed with phosphatase substrate at room temperature for 30 min, stopped with 1 M NaOH. Optical density (OD) at 405 nm/650 nm was determined to quantify the inhibition. […] Thus, specificity exchangers that bind Gal-alpha1,3-Gal-specific antibodies had been generated. […]

Gal-alpha1,3-Gal-labeled bovine serum albumin [Gal-BSA]
inhibition of human antibody binding to Gal-BSA: 100%
